According to patent publication US11400107B2, “Cancer treatments” (NuCana plc, priority 2016, dated 2022):
“Also recorded” adds a separate entry of the source.

Key:
Format in all cases: cell-based, human
[1] = tested on: Lin^−/CD34^+/CD38^−/CD123^+ cancer stem cells in KG1a cells; assay: Immunophenotypic quantification of the leukaemic stem cell compartment in KG1a cells; settings: for proportion of cancer stem cells as compared to non-stem cancer cells after treatment: 72 h; for selectivity for cancer stem cells as opposed to non-stem cancer cells (summary): summary statement of the description
Protocol: The respective abilities of NUC-1031 and gemcitabine to target CSCs were investigated in the AML cell line KG1a.
KG1a cells were cultured for 72 hours in the presence of a wide range of concentrations of each nucleoside analogue and their respective ProTides. Cells were then harvested and labelled with a cocktail of anti-lineage antibodies (PE-cy7), anti-CD34 (FITC), anti-CD38 (PE) and anti-CD123 (PERCP cy5). The sub-population expressing a leukaemic stem cell (LSC) phenotype were subsequently identified and were expressed as a percentage of all viable cells left in the culture. The percentages of stem cells remaining were then plotted on a dose-response graph and the proportion of cancer stem cells was compared across the various concentrations of ProTides and their respective parent compounds, in order to determine if they preferentially target cancer stem cells.
(§1) The data obtained in these experiments were evaluated using one way ANOVA. All data was confirmed as Gaussian or a Gaussian approximation using the omnibus K2 test. LD50 values were calculated from the non-linear regression and line of best-fit analysis of the sigmoidal dose-response curves. All statistical analyses were performed using Graphpad Prism 6.0 software (Graphpad Software Inc., San Diego, Calif.).

KG1a cells = assay: In vitro apoptosis / LD50 assay (Annexin V) in KG1a cells; settings: for LD50: KG1a cells (FIG. 7A), 72 h
Protocol: The acute myeloid leukaemia (AML) KG1a cell line was maintained in RPMI medium (Invitrogen, Paisley, UK) supplemented with 100 units/ml penicillin, 100 μg/ml streptomycin and 20% fetal calf serum. Cells were subsequently aliquoted (10^5 cells/100 μl) into 96-well plates and were incubated at 37° C. in a humidified 5% carbon dioxide atmosphere for 72 h in the presence of NUC-1031 or gemcitabine at concentrations that were experimentally determined for each compound. In addition, control cultures were carried out to which no drug was added. Cells were subsequently harvested by centrifugation and were analysed by flow cytometry using the Annexin V assay.
Cultured cells were harvested by centrifugation and then resuspended in 195 μl of calcium-rich buffer. Subsequently, 5 μl of Annexin V (Caltag Medsystems, Botolph Claydon, UK) was added to the cell suspension and cells were incubated in the dark for 10 mins prior to washing. Cells were finally resuspended in 190 μl of calcium-rich buffer together with 10 μl of propidium iodide. Apoptosis was assessed by dual-colour immunofluorescent flow cytometry as described previously. Subsequently LD50 values (the dose required to kill 50% of the cells in a culture) were calculated for each nucleoside analogue and ProTide.
as §1

[2] = tested on: primary acute myeloid leukaemia (AML) blasts; assay: In vitro cytotoxicity assay (LD50) in primary acute myeloid leukaemia cells; settings: for LD50: primary AML blasts, 48 h, concentration required to kill 50% of the tumour cells in culture; for potency as compared to the respective parent compound (summary): summary statement of the description
Protocol: ProTide compounds, as defined herein, and the comparator ProTide compound NUC-1031 were assayed for their cytotoxic effects on primary cultures of acute myeloid leukaemia (AML) blasts. LD50 values (the concentration required to kill 50% of the tumour cells in culture) were calculated in respect of the ProTide compounds of the invention, and the parent compounds from which they are derived. […] The LD50 values of the ProTide compounds as defined herein (and their parent compounds) were compared with the comparator ProTide NUC-1031 and its parent compound gemcitabine.
Bone marrow samples were collected in ethylenediaminetetraacetic acid (EDTA) from newly diagnosed, previously untreated, acute myeloid leukaemia (AML) patients. AML blasts were enriched by density gradient centrifugation using Histopaque (Sigma, Poole, UK) and were subsequently maintained in Roswell Park Memorial Institute medium (RPMI) supplemented with 10% foetal bovine serum (FBS). Cells were treated with ProTide compounds (either as encompassed by the present invention, or the comparator ProTide NUC-1031) or with the ProTides' parent compounds at a range of experimental concentrations, and incubated for 48 h. All cultures were maintained at 37° C. in a 5% CO2 humidified atmosphere.
Cells were harvested and labelled with CD34-fluorescein isothiocyanate (FITC) (BD Biosciences, Buckingham, UK) and then resuspended in 200 μl of binding buffer containing 4 μl of annexin V labelled with allophycocyanin (APC) (eBioscience Ltd, Hatfield, UK). Apoptosis was quantified in the CD34^+ AML cells using an Accuri C6 flow cytometer (Becton Dickinson, CA, USA). At least 10,000 events were acquired and data were subsequently analysed using FlowJo software (Tree Star Inc., Ashland, Oreg., USA). All LD50 values (concentration of drug required to kill 50% of cells) were derived from the dose-response curves.

SMILES	low concentration at which the selective reduction of cancer stem cells was still observed ([1]; KG1a cells)	proportion of cancer stem cells as compared to non-stem cancer cells after treatment ([1]; KG1a cells)	selectivity for cancer stem cells as opposed to non-stem cancer cells (summary) [1]	LD50 (KG1a cells)	potency relative to FUDR (times more potent) (KG1a cells; from LD50 values)	LD50 [2]	potency as compared to the respective parent compound (summary) [2]	selectivity against cancer stem cells compared to the parent compound ([1]; KG1a cells)
CCCCCOC(=O)[C@H](C)NP(=O)(OC[C@H]1O[C@@H](n2cc(F)c(=O)[nH]c2=O)CC1O)Oc1cccc2ccccc12 (stereo partly drawn) [CPF-581]	approximately 8×10^−8 M	reduction in the proportion of cancer stem cells	selectively target for cancer stem cells; also recorded: high selectivity for cancer stem cells	0.027 µM	over 50 times	CPF 581 0.027 μM	greater potency	–
C[C@H](NP(=O)(OC[C@H]1O[C@@H](n2cc(F)c(=O)[nH]c2=O)CC1O)Oc1cccc2ccccc12)C(=O)OCCC(C)(C)C (stereo partly drawn) [CPF-585]	–	reduction in the proportion of cancer stem cells	selectively target for cancer stem cells	–	–	CPF 585 0.79 μM	–	–
C[C@H](NP(=O)(OC[C@H]1O[C@@H](n2cnc3c(=S)[nH]c(N)nc32)[C@@H](O)C1O)Oc1ccccc1)C(=O)OCc1ccccc1 (stereo partly drawn) [CPF-782]	–	strong reduction in the proportion of cancer stem cells	selectively target for cancer stem cells; also recorded: high selectivity for cancer stem cells	–	–	CPF 782 0.82 μM	greater potency	most selective; also recorded: statistically significant increases in selectivity at certain concentrations
O=c1[nH]c(=O)n([C@H]2C[C@H](O)[C@@H](CO)O2)cc1F [FUDR]	–	reduction in the proportion of cancer stem cells	–	1.18 µM	–	FUDR 1.18 μM	–	–
